Assay results published in ChEMBL document CHEMBL5518167, “Degradation of Polo-like Kinase 1 by the Novel Poly-Arginine N-Degron Pathway PROTAC Regulates Tumor Growth in Nonsmall Cell Lung Cancer” (J Med Chem, 2024).
One block for each molecule: values may come before it. Active and inactive are the calls of the source. The calls are words filed in the database; no cut-off is given here. Where a SMILES comes first, the peptide text is derived from it.

How the values were obtained:
[1] = In vivo induction of PLK1 degradation in nude mouse xenografted with human NCI-H1975 cells assessed as reduction in PLK1 protein expression at 5 mg/kg, iv administered for every 3 days by Western blotting analysis; format: functional; parameters: scale not given: the % may be the effect or the level left
[2] = tested on: HeLa; assay: Cytotoxicity against human HeLa cells assessed as change in morphology at 18 uM incubated for 24 hrs by phase contrast microscopic assay; format: functional, cell-based
[3] = tested on: PC-9; assay: Cytotoxicity against human PC-9 cells at 0.8 to 50 uM incubated for 24 hrs by MTT assay; format: functional, cell-based; details: dose 0.8-50 µM
[4] = tested on: A549; assay: Cytotoxicity against human A549 cells at 0.8 to 50 uM incubated for 24 hrs by MTT assay; format: functional, cell-based; details: dose 0.8-50 µM
[5] = tested on: A549; assay: Cytotoxicity against human A549 cells assessed as change in morphology at 25 uM incubated for 24 hrs by phase contrast microscopic assay; format: functional, cell-based
[6] = tested on: A549; assay: Induction of cell cycle arrest in human A549 cells at 10 uM incubated for 24 hrs by PI staining based flow cytometry analysis; format: functional
[7] = tested on: NCI-H1975; assay: Cytotoxicity against human NCI-H1975 cells assessed as change in morphology at 25 uM incubated for 24 hrs by phase contrast microscopic assay; format: functional, cell-based
[8] = tested on: PC-9; assay: Induction of cell cycle arrest in human PC-9 cells at 10 uM incubated for 24 hrs by PI staining based flow cytometry analysis; format: functional
[9] = tested on: PC-9; assay: Cytotoxicity against human PC-9 cells assessed as change in morphology at 25 uM incubated for 24 hrs by phase contrast microscopic assay; format: functional, cell-based
[10] = tested on: NCI-H1975; assay: Induction of cell cycle arrest in human NCI-H1975 cells at 10 uM incubated for 24 hrs by PI staining based flow cytometry analysis; format: functional
[11] = tested on: NCI-H1975; assay: Cytotoxicity against human NCI-H1975 cells at 0.8 to 50 uM incubated for 24 hrs by MTT assay; format: functional, cell-based; details: dose 0.8-50 µM
[12] = tested on: HeLa; assay: Induction of cell cycle arrest in human HeLa cells at 10 uM incubated for 24 hrs by PI staining based flow cytometry analysis; format: functional
[13] = tested on: UBR/PLK1 (Homo sapiens); assay: Protac activity at UBR/PLK1 in human HeLa cells assessed as PLK1 degradation at 75 uM incubated for 24 hrs by immunoblotting analysis
[14] = tested on: UBR/PLK1 (Homo sapiens); assay: Protac activity at UBR/PLK1 in human HeLa cells assessed as PLK1 degradation at 50 uM after 24 to 48 hrs by immunoblotting analysis; details: time 24-48 hrs
[15] = molecular target: E3 ubiquitin-protein ligase UBR2 (Homo sapiens) (UniProt Q8IWV8); assay: Binding affinity to UBR2 (unknown origin) expressed in HEK293T cells incubated for 3 hrs by pull-down assay; format: cell-based
[16] = tested on: UBR/PLK1 (Homo sapiens); assay: Protac activity at UBR/PLK1 in human HeLa cells assessed as PLK1 degradation incubated for 24 hrs by immunoblotting analysis; details: dose 25-100 µM
[17] = tested on: UBR/PLK1 (Homo sapiens); assay: Protac activity at UBR/PLK1 in human HeLa cells assessed as PLK1 degradation at 50 uM incubated for 24 hrs by immunoblotting analysis
[18] = tested on: UBR/PLK1 (Homo sapiens); assay: Protac activity at UBR/PLK1 in human HeLa cells assessed as PLK1 degradation at 50 uM preincubated for 24 hrs followed by MG132 addition for 8 hrs by immunoblotting analysis; details: time 32.0 hrs
[19] = tested on: UBR/PLK1 (Homo sapiens); assay: Protac activity at UBR/PLK1 in human HeLa cells assessed as PLK1 degradation at 100 uM incubated for 24 hrs by immunoblotting analysis
[20] = molecular target: E3 ubiquitin-protein ligase UBR1 (Homo sapiens) (UniProt Q8IWV7); assay: Binding affinity to UBR1 (unknown origin) expressed in HEK293T cells incubated for 3 hrs by pull-down assay; format: cell-based
[21] = tested on: UBR/PLK1 (Homo sapiens); assay: Protac activity at UBR/PLK1 in human HeLa cells assessed as PLK1 degradation at 50 uM by immunoblotting analysis; details: time 2-48 hrs, TDE = time-dependent effect
[22] = molecular target: Serine/threonine-protein kinase PLK1 (Homo sapiens, UniProt P53350); assay: Binding affinity to PLK1 PBD (unknown origin) by ITC method
Serine/threonine-protein kinase PLK1, sequence (P53350 whole entry): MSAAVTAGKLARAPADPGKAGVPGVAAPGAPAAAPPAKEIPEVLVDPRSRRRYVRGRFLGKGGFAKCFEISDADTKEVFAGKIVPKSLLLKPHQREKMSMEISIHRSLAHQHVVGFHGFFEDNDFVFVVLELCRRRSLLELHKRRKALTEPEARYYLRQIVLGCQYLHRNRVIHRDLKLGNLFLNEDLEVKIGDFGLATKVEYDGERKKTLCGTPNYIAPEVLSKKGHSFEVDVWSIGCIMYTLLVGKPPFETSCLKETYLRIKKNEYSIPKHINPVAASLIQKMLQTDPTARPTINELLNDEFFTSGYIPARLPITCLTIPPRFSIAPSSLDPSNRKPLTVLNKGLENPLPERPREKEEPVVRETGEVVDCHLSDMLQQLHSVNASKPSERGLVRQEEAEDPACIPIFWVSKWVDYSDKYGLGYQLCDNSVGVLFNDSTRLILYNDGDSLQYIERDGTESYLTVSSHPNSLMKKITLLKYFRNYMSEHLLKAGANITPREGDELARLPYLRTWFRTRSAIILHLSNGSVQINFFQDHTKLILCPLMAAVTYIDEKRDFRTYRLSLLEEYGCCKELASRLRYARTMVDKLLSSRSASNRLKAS

E3 ubiquitin-protein ligase UBR2 (Homo sapiens), sequence (Q8IWV8 whole entry): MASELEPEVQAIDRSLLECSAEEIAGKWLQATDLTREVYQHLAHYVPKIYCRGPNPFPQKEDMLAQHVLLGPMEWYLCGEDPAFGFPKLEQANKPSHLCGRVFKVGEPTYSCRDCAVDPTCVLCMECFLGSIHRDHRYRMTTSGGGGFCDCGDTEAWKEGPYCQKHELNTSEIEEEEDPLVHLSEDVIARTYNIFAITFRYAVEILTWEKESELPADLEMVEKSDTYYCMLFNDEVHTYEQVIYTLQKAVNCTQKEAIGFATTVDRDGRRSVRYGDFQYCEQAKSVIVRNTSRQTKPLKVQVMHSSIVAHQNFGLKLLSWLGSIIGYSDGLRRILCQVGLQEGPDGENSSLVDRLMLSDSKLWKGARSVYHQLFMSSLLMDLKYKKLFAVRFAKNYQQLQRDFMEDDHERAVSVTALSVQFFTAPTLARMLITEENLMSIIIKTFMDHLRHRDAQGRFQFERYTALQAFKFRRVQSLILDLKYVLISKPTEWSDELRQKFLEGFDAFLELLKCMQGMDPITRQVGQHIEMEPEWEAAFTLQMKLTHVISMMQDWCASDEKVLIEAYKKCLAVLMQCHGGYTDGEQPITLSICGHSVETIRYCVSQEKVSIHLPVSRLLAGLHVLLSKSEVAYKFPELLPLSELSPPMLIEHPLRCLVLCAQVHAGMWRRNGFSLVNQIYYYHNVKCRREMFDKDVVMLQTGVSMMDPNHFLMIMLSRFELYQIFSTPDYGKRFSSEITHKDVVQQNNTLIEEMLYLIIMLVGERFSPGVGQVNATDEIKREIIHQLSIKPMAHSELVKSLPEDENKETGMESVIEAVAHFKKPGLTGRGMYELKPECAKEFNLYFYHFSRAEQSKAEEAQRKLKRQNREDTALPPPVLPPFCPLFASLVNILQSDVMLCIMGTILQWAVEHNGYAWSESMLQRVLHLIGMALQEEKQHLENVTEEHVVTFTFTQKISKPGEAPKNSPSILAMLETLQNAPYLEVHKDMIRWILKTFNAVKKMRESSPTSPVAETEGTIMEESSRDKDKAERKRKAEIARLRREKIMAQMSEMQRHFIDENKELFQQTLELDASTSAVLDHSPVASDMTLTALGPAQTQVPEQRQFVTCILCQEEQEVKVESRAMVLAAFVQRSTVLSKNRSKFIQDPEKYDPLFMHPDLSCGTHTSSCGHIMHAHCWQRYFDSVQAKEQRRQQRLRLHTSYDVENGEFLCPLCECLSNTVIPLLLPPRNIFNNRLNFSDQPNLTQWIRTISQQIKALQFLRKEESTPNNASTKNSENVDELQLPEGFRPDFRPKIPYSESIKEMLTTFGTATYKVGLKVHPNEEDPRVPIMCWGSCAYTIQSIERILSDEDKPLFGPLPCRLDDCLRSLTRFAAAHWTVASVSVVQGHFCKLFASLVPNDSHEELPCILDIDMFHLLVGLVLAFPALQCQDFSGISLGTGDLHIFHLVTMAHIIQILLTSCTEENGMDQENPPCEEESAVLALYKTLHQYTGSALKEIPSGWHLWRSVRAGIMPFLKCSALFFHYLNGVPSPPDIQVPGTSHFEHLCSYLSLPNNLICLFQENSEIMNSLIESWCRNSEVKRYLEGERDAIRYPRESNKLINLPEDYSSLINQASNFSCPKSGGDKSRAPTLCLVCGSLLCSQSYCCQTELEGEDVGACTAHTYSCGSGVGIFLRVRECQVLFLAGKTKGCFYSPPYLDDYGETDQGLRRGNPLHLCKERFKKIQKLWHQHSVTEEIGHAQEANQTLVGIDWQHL
E3 ubiquitin-protein ligase UBR1 (Homo sapiens), sequence (Q8IWV7 whole entry): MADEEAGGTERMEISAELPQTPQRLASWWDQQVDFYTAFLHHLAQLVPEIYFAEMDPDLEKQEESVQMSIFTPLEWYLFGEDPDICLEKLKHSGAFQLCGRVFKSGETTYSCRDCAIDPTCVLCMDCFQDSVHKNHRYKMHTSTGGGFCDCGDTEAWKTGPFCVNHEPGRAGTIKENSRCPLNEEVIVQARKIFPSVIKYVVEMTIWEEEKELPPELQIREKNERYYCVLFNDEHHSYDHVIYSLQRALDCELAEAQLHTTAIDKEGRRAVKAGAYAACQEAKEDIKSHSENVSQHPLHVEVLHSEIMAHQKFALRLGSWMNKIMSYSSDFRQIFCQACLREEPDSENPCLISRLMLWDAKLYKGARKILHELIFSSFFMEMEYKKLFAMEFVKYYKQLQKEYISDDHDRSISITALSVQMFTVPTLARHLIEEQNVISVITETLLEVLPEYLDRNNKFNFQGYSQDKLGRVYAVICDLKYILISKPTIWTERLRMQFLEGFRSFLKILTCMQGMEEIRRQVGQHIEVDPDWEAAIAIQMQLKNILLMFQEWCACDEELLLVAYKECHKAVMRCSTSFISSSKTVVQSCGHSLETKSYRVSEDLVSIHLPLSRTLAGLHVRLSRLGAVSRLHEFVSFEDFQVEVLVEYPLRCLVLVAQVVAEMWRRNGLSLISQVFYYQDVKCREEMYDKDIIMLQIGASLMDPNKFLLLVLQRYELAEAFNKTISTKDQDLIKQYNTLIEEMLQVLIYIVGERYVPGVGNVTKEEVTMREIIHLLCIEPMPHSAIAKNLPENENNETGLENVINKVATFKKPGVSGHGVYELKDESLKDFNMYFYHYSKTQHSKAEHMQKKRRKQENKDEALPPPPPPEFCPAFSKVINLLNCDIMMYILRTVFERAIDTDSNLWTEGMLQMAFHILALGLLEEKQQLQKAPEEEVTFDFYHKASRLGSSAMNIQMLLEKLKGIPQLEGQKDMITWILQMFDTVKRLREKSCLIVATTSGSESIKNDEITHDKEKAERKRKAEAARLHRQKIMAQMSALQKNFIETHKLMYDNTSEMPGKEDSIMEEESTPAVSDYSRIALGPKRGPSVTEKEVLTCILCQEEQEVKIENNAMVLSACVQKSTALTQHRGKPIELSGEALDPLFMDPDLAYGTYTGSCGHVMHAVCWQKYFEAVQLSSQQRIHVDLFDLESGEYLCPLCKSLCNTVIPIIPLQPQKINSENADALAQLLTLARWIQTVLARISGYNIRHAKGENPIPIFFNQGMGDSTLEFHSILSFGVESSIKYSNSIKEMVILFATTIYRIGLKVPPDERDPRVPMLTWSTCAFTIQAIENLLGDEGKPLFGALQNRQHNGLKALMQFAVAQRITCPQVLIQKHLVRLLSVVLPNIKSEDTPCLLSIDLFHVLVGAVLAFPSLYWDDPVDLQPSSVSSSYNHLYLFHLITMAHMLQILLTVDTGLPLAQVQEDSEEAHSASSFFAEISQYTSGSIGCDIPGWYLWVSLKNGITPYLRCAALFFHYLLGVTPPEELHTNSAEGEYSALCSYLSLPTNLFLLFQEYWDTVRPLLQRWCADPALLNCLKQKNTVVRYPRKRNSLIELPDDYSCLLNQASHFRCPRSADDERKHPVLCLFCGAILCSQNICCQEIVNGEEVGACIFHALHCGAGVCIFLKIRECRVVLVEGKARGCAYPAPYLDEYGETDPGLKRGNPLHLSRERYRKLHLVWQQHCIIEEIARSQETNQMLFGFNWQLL

SMILES: C=CC(=O)Nc1cc(Nc2nccc(-c3cn(C)c4ccccc34)n2)c(OC)cc1N(C)CCN(C)C [OSIMERTINIB]
Activity [1]: >60%

SMILES: N=C(N)NCCC[C@H](NC(=O)[C@H](CCCNC(=N)N)NC(=O)[C@H](CCCNC(=N)N)NC(=O)[C@H](CCCNC(=N)N)NC(=O)[C@H](CCCNC(=N)N)NC(=O)[C@H](CCCNC(=N)N)NC(=O)[C@H](CCCNC(=N)N)NC(=O)[C@H](CCCNC(=N)N)NC(=O)[C@H](CCCNC(=N)N)NC(=O)[C@H](CCCNC(=N)N)NC(=O)[C@H](CCCNC(=N)N)NC(=O)[C@@H](N)CCCNC(=N)N)C(N)=O
Activity [2]: inactive | Activity [3]: inactive | Activity [4]: inactive | Activity [5]: inactive | Activity [6]: inactive | Activity [7]: inactive | Activity [8]: inactive | Activity [9]: inactive | Activity [10]: inactive | Activity [11]: inactive | Activity [12]: inactive

Activity [13]: 70% | Activity [14]: 90% | Activity [15]: Active | Activity [16]: Dose-Dependent Effect | Activity [17]: 60% | Activity [18]: inactive | Activity [19]: 70% | Activity [20]: Active | Activity [21]: Tde
SMILES: CC(C)C[C@H](NC(=O)[C@H]1CCCN1C(=O)CCCCCNC(=O)[C@H](CCCNC(=N)N)NC(=O)[C@H](CCCNC(=N)N)NC(=O)[C@H](CCCNC(=N)N)NC(=O)[C@H](CCCNC(=N)N)NC(=O)[C@H](CCCNC(=N)N)NC(=O)[C@H](CCCNC(=N)N)NC(=O)[C@H](CCCNC(=N)N)NC(=O)[C@H](CCCNC(=N)N)NC(=O)[C@H](CCCNC(=N)N)NC(=O)[C@H](CCCNC(=N)N)NC(=O)[C@H](CCCNC(=N)N)NC(=O)[C@@H](N)CCCNC(=N)N)C(=O)N[C@@H](Cc1cnc[nH]1)C(=O)N[C@@H](CO)C(=O)N[C@H](C(N)=O)[C@@H](C)OP(=O)(O)O

SMILES: C[C@@H](OP(=O)(O)O)[C@@H]1NC(=O)[C@H](Cc2cncn2CCCCCCCCc2ccccc2)NC(=O)[C@@H](N)CCC(=O)NCCCC[C@@H](C(N)=O)NC1=O (HELM PEPTIDE1{E.[O=C([C@H](Cc1cncn1CCCCCCCCc1ccccc1)N[*:1])[*:2]].[C[C@@H](OP(=O)(O)O)[C@H](N[*:1])C(=O)[*:2]].K.[am]}$PEPTIDE1,PEPTIDE1,1:R3-4:R3$$$V2.0)
Activity [2]: inactive | Activity [3]: inactive | Activity [4]: inactive | Activity [5]: inactive | Activity [7]: inactive | Activity [9]: inactive | Activity [11]: inactive

Kd [22]: 2200 nM
SMILES: CC(C)C[C@H](NC(=O)[C@@H]1CCCN1C(=O)CCCCCNC(=O)[C@H](CCCNC(=N)N)NC(=O)[C@H](CCCNC(=N)N)NC(=O)[C@H](CCCNC(=N)N)NC(=O)[C@H](CCCNC(=N)N)NC(=O)[C@H](CCCNC(=N)N)NC(=O)[C@H](CCCNC(=N)N)NC(=O)[C@H](CCCNC(=N)N)NC(=O)[C@H](CCCNC(=N)N)NC(=O)[C@H](CCCNC(=N)N)NC(=O)[C@H](CCCNC(=N)N)NC(=O)[C@H](CCCNC(=N)N)NC(=O)[C@@H](N)CCCNC(=N)N)C(=O)N[C@@H](Cc1cnc[nH]1)C(=O)N[C@@H](CO)C(=O)N[C@H](C(N)=O)[C@@H](C)OP(=O)(O)O
